Several values for one entry are separate records, joined by “and”; a condition that tells them apart may be missing. Equal values may be shown once. Read-outs that look alike come from different tables or passages of the source.
Legend:
[1] = Single-dose crossover pharmacokinetics of IR, MR1 and MR2 capsules (8 mg); type: in vivo, human; parameters: AUC72hr: unit not given beside the values; conditions: plasma, following a single 8 mg dose of IR CX-8998
[2] = tested on: harmaline-induced tremor model in rats; conditions: 3 ascending doses per os; cited from earlier work
[3] = type: in vivo; conditions: dog NOAEL 30 mg/kg
[4] = type: in vivo; conditions: rat NOAEL 300 mg/kg

| SMILES | Cmax [1] [nM] | harmaline-induced tremor [2] | physiologic tremor before administration of harmaline [2] | AUC72hr [1] | Total safety margin, AUC24 hr (animal AUC / human estimated AUC at steady state, 10 mg BID) ([3]; Day 90, female) [fold] | Total safety margin, Css (animal Cmax / human estimated Css at steady state, 10 mg BID) ([3]; Day 90, female) | Total safety margin, AUC24 hr (animal AUC / human estimated AUC at steady state, 10 mg BID) ([3]; Day 90, male) [fold] | Total safety margin, Css (animal Cmax / human estimated Css at steady state, 10 mg BID) ([3]; Day 90, male) [fold] | Total safety margin, AUC24 hr (animal AUC / human estimated AUC at steady state, 10 mg BID) ([4]; Day 90, female) [fold] | Total safety margin, Css (animal Cmax / human estimated Css at steady state, 10 mg BID) ([4]; Day 90, female) [fold] | Total safety margin, AUC24 hr (animal AUC / human estimated AUC at steady state, 10 mg BID) ([4]; Day 90, male) [fold] | Total safety margin, Css (animal Cmax / human estimated Css at steady state, 10 mg BID) ([4]; Day 90, male) [fold] |
| --- | --- | --- | --- | --- | --- | --- | --- | --- | --- | --- | --- | --- |
| C[C@@H](NC(=O)Cc1ccc(C(C)(C)O)cc1)c1ccc(OCC(F)(F)F)cn1 [M02] | 122 | – | – | – | – | – | – | – | – | – | – | – |
| CC1(C)C[C@@H](CN2CCC(F)(CNC(=O)c3cc(Cl)cc(Cl)c3)CC2)CCO1 [TTA-P2] | – | dose-dependent response | dose-dependent response to a reduction in physiologic tremor | – | – | – | – | – | – | – | – | – |
| C=C(C)c1ccc(CC(=O)N[C@H](C)c2ccc(OCC(F)(F)F)cn2)cc1 [M01] | 124 | – | – | 6876 | 5.6 | 8 fold and 8.0 fold | 6.5 | 10 | 13 | 21 | 6.8 | 13 |

Source: patent US20250312323A1 (Cavion, Inc., priority 2018, published 2025)
